Measurements from US7468357B2, “Nucleosides with anti-hepatitis B virus activity” (Emory University, priority 1994, dated 2008).
Where two headings read alike, the source gives them in different places.

How the values were obtained:
[1] = test system: 2.2.15 cells (HepG2 cells transformed with hepatitis virion); experiment: Toxicity analysis by uptake of neutral red dye in 2.2.15 cell cultures
Method: (§1) Toxicity analyses were performed in order to assess whether any observed antiviral effects were due to a general effect on cell viability. The method used was based on the uptake of neutral red dye, a standard and widely used assay for cell viability in a variety of virus-host systems, including HSV (herpes simplex virus) and HIV. The test compounds were used in the form of 40 mM stock solutions in DMSO (frozen on dry ice). Daily aliquots of the test samples were made and frozen at −20° C. so that each individual aliquot would be subjected to a single freeze-thaw cycle. The daily test aliquots were thawed, suspended into culture medium at room temperature and immediately added to the cell cultures. The compounds were tested at 0.01 to 10 μM for antiviral activity. The compounds were tested for toxicity at concentrations from 1 to 300 μM.
(§2) Toxicity analyses were performed in 96-well flat bottomed tissue culture plates. Cells for the toxicity analyses were cultured and treated with test compounds with the same schedule as used for the antiviral evaluations. Each compound was tested at 4 concentrations, each in triplicate cultures. Uptake of neutral red dye was used to determine the relative level of toxicity. The absorbance of internalized dye at […] (A510) was used for the quantitative analysis. Values are presented as a percentage of the average A510 values (± standard deviations) in 9 separate cultures of untreated cells maintained on the same 96-well plate as the test compounds.

[2] = test system: Hepatitis B virus; experiment: Inhibition of HBV replication in transfected HepG-2 (2.2.15) cells (HBV virion DNA and replicative intermediates, blot hybridization); format: cell-based; conditions: for Selectivity Index IC50/EC90 RI: cytotoxicity IC50 / RI EC90; for Selectivity Index IC50/EC90 Virion: cytotoxicity IC50 / virion EC90; for Selectivity Index IC50/EC50 RI: cytotoxicity IC50 / RI EC50; for Selectivity Index IC50/EC50 Virion: cytotoxicity IC50 / virion EC50
Method: The assay used herein to evaluate the ability of the disclosed compounds to inhibit the replication of HBV is described in detail in Korba and Gerin, Antiviral Res. 19: 55-70 (1992). […] The toxicity and anti-HBV activity of (−)-β-L-2-hydroxymethyl-5-(5-fluorocytosin-1-yl)-1,3-oxathiolane ((−)-β-L-FTC) and β-D-2′,3′-dideoxycytidine (β-D-ddC) are included as controls. The other compounds disclosed herein can be evaluated similarly.
The antiviral evaluations were performed on two separate passages of cells, two cultures per passage (4 cultures total). All wells, in all plates, were seeded at the same density and at the same time.
(Korba and Gerin, Antiviral Res. 19: 55-70, 1992). The levels of integrated HBV DNA in each cellular DNA preparation (which remain constant on a per cell basis in these experiments) were used to calculate the levels of intracellular HBV DNA forms, thereby eliminating technical variations inherent in the blot hybridization assays.
as §1

[3] = Toxicity analysis by uptake of neutral red dye in 2.2.15 cell cultures; conditions: human, Cytotoxicity IC50, Table 2; Hep G-2 (2.2.15) cells
Method: as §1, §2

[4] = target: human DNA polymerase β (Homo sapiens, UniProt P06746); experiment: Inhibition of human DNA polymerase β by triphosphates; format: biochemical; conditions: read-out: DNA Pol β Ki
[5] = target: T1, human DNA polymerase α (Homo sapiens, UniProt P09884); experiment: Inhibition of human DNA polymerase α by triphosphates; format: biochemical; conditions: read-out: DNA Pol α Ki
T1 sequence (P09884 1-1462): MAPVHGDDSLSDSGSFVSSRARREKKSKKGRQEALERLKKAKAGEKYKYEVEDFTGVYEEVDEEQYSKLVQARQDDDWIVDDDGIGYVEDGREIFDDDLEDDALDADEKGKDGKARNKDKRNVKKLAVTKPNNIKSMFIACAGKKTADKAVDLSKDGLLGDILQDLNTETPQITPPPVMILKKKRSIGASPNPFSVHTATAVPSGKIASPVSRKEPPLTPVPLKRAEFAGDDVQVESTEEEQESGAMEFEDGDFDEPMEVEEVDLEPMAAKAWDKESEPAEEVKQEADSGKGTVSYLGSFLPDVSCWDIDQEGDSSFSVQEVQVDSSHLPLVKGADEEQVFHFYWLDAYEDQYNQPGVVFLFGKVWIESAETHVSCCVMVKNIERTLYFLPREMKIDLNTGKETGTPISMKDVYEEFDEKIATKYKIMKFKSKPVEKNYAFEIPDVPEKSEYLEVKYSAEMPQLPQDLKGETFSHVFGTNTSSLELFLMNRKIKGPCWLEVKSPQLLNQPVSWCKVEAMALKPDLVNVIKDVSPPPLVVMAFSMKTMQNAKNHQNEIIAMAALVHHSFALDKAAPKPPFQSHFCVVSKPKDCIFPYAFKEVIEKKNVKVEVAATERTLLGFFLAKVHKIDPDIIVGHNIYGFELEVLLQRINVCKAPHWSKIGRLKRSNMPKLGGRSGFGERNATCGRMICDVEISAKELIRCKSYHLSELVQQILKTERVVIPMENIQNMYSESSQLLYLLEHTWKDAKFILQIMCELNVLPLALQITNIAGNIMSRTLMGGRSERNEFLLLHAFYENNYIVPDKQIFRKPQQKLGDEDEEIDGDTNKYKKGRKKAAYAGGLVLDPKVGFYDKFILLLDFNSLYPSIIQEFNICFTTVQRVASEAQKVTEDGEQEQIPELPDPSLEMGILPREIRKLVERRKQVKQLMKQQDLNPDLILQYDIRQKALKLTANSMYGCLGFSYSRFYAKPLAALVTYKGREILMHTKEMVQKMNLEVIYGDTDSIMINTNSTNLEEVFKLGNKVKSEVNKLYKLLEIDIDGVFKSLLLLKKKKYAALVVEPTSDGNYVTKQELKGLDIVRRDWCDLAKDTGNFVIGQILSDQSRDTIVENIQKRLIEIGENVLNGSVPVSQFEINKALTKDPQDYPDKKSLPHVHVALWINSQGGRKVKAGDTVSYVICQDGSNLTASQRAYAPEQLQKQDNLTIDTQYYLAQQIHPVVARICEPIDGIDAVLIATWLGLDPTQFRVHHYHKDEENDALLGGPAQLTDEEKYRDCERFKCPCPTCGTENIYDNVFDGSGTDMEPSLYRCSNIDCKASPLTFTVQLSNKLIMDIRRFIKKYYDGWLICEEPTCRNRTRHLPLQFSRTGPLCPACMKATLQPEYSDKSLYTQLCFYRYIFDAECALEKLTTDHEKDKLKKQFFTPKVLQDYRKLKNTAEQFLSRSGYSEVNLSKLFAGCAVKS

[6] = target: woodchuck hepatitis virus DNA polymerase (Woodchuck hepatitis B virus, UniProt P03160); experiment: Inhibition of woodchuck hepatitis virus DNA polymerase by triphosphates; format: biochemical; conditions: read-out: WHB DNA Pol IC50
woodchuck hepatitis virus DNA polymerase, sequence (P03160 whole entry): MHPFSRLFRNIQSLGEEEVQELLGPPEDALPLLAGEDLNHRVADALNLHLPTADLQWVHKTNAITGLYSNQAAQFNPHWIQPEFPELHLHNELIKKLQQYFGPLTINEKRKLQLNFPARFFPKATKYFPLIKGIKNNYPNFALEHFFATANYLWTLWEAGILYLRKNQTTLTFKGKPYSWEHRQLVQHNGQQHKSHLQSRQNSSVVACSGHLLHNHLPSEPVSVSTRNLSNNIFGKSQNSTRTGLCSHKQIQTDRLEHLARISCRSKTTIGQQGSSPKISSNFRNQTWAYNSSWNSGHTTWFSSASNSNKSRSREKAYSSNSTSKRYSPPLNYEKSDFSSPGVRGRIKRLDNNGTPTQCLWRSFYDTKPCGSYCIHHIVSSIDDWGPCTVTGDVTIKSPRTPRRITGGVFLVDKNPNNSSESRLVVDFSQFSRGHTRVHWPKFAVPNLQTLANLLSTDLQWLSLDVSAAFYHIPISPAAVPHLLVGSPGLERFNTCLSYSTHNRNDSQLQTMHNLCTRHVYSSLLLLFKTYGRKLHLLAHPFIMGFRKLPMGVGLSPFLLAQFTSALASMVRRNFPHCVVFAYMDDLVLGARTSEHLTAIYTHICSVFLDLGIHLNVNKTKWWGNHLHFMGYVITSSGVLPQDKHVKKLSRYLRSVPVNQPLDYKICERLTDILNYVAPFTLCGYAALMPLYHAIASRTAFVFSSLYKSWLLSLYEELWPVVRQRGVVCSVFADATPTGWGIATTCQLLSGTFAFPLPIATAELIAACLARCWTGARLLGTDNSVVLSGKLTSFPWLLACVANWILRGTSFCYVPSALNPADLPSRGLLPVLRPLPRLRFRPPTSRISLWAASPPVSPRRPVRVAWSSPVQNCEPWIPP

[7] = read-out: Cytotoxity IC50 ± SD, Table 1, neutral red dye uptake, 2.2.15 cells
[8] = Table 1, extracellular DNA, transfected HEPG-2 (2.2.15) cells, read-out: HBV viron EC90 ± SD
[9] = Table 1, replicative intermediates (intracellular DNA), transfected HEPG-2 (2.2.15) cells, read-out: HBV RI EC50 ± SD
[10] = Table 1, replicative intermediates (intracellular DNA), transfected HEPG-2 (2.2.15) cells, read-out: HBV RI EC90 ± SD
[11] = read-out: Cytotoxicity IC50, Table 2, Hep G-2 (2.2.15) cells
[12] = Table 2, extracellular DNA, transfected Hep G-2 (2.2.15) cells, read-out: HBV Virion EC50
[13] = Table 2, replicative intermediates (intracellular DNA), transfected Hep G-2 (2.2.15) cells, read-out: HBV RI EC50

| Structure (SMILES) | IC50 [1, 7] | Selectivity Index IC50/EC90 RI ([2]; Table 1) | Selectivity Index IC50/EC90 Virion ([2]; Table 1) | EC90 [2, 8] | EC50 [2, 9] | EC90 [2, 10] | IC50 [1, 11] | Selectivity Index IC50/EC50 RI ([2]; Table 2) | Selectivity Index IC50/EC50 Virion ([2]; Table 2) | EC50 [2, 12] | EC50 [2, 13] | also measured |
| --- | --- | --- | --- | --- | --- | --- | --- | --- | --- | --- | --- | --- |
| Nc1nc(=O)n(C2CSC(CO)O2)cc1F [(−)-β-L-FTC, (−)-β-L-2-hydroxymethyl-5-(5-fluorocytosin-1-yl)-1,3-oxathiolane, reference compound] | 292 ± 13 µM | 1,622 | 1,947 | 0.15 ± 0.02 µM | 0.049 ± 0.008 µM | 0.18 ± 0.03 µM |  |  |  |  |  | EC50 ([2]; Table 1, extracellular DNA, transfected HEPG-2 (2.2.15) cells, read-out: HBV viron EC50 ± SD): 0.017 ± 0.005 µM |
| Cc1cn([C@@H]2CC(N=[N+]=[N-])[C@H](CO)O2)c(=O)[nH]c1=O (stereo partly drawn) [β-L-AZT, 1-(3-Azido-2-3-dideoxy-β-L-erythro-pentofuranosyl) thymine] |  |  |  |  |  |  |  |  |  |  |  | IC50 [3]: 1000 µM; EC50 ([2]; Hepatitis B virus, HepG2 2.2.15, read-out: HBV RI EC50, Table 2, replicative intermediates (intracellular DNA), transfected Hep G-2 (2.2.15) cells): > 10 µM; EC50 ([2]; Hepatitis B virus, HepG2 2.2.15, read-out: HBV Virion EC50, Table 2, extracellular DNA, transfected Hep G-2 (2.2.15) cells): > 10 µM |
| Nc1nc(=O)n([C@@H]2CC[C@H](CO)O2)cc1F [β-L-FDDC, 2′,3′-Dideoxy-β-L-5-fluorocytidine] | 438 ± 57 µM | 91 | 1,460 | 0.3 ± 0.03 µM | 2.8 ± 0.4 µM | 4.8 ± 0.6 µM |  |  |  |  |  | Inhibition of HBV replication (depression of HBV virion DNA and HBV RI), in words ([2]; 2.2.15 cells): potent inhibitors of HBV replication |
| CC(C)(C)C(=O)SCCOP(=O)(OCCSC(=O)C(C)(C)C)OCC1CCC(n2cnc3c(N)ncnc32)O1 [Bis (Sate) β-L-ddAMP, β-L-2′,3′-Dideoxyadenosin-5′-yl bis (2-pivaloylthioethyl) phosphate] |  |  |  |  |  |  | 200 µM | 571 | 445 | 0.45 µM | 0.35 µM |  |
| Nc1ncnc2c1ncn2[C@@H]1CC[C@H](CO)O1 [β-L-ddA] |  |  |  |  |  |  | 250 µM | 50 | 50 | 5 µM | 5 µM |  |
| Nc1ncnc2c1ncn2[C@@H]1CC[C@H](COP(=O)(O)OP(=O)(O)OP(=O)(O)O)O1 [β-L-ddATP] |  |  |  |  |  |  |  |  |  |  |  | Ki [4]: > 100 µM; Ki [5]: > 100 µM; IC50 [6]: 2.1 µM |
